According to patent US8759500B2, “Crystalline forms of a macrolide, and uses therefor” (Cempra Pharmaceuticals, Inc., priority 2010, dated 2014):

Test: Dynamic vapor sorption
Format: physicochemical
Procedure: The new physical form, Form I of CEM-101 is a crystalline form which may be described by its X-ray powder diffraction pattern. Peaks at approximate positions of about °2θ=8.8, 10.5, 13.2 and 18.6 are representative of this crystalline form. A more detailed analysis of the peaks is described in Tables 1-2 below. […] Water determination by Karl Fisher titration in typical lots is 0.6 to 1.1%. […] Form I of CEM-101 melts at about 200° C. by DSC analysis.
The new physical form, Form II of CEM-101 is a crystalline form which may be described by its X-ray powder diffraction pattern. Peaks at approximate positions of about °2θ=5.6, 7.9, 9.3, 11.7, 12.9 and 16.7 are representative of this crystalline form. A more detailed analysis of the peaks is described in Tables 3-4 below. Based on a single crystal X-ray determination and dynamic vapor sorption analysis, Form II appears to be a non-hygroscopic anhydrous crystalline form that melts at about 225° C. as a single endothermic event by DSC analysis. It is appreciated herein that non-hygroscopic solids, such as Form II described herein, may be advantageous in the preparation of pharmaceutical compositions. Such advantages include improved handling and stability properties in manufacturing, improved lot to lot quality control.

- hygroscopicity: non-hygroscopic
SMILES: CC[C@H]1OC(=O)[C@@](C)(F)C(=O)[C@H](C)[C@@H](O[C@@H]2O[C@H](C)C[C@H](N(C)C)[C@H]2O)[C@](C)(OC)C[C@@H](C)C(=O)[C@H](C)[C@H]2N(CCCCn3cc(-c4cccc(N)c4)nn3)C(=O)O[C@]12C [Form II, solithromycin]
